Source: patent US7045532B2 (Millennium Pharmaceuticals, Inc., priority 1999, dated 2006)
Like-named read-outs stand apart in the source and are kept apart here.

Columns and labels:
[1] = Effect on appetite: food consumption in ICR mice; conditions: 3 mg/kg oral
ACE (Sigma, A2580) = biological target: T1, ACE (Sigma, A2580) (Sus scrofa, UniProt F1RRW5); assay: ACE enzymatic activity assay; format: biochemical, porcine; conditions: Ki class, compounds tested in 5% DMSO
T1 construct: ACE from porcine kidney; purchased Sigma A2580; host or cells: porcine kidney
T1 sequence (F1RRW5 34-1309): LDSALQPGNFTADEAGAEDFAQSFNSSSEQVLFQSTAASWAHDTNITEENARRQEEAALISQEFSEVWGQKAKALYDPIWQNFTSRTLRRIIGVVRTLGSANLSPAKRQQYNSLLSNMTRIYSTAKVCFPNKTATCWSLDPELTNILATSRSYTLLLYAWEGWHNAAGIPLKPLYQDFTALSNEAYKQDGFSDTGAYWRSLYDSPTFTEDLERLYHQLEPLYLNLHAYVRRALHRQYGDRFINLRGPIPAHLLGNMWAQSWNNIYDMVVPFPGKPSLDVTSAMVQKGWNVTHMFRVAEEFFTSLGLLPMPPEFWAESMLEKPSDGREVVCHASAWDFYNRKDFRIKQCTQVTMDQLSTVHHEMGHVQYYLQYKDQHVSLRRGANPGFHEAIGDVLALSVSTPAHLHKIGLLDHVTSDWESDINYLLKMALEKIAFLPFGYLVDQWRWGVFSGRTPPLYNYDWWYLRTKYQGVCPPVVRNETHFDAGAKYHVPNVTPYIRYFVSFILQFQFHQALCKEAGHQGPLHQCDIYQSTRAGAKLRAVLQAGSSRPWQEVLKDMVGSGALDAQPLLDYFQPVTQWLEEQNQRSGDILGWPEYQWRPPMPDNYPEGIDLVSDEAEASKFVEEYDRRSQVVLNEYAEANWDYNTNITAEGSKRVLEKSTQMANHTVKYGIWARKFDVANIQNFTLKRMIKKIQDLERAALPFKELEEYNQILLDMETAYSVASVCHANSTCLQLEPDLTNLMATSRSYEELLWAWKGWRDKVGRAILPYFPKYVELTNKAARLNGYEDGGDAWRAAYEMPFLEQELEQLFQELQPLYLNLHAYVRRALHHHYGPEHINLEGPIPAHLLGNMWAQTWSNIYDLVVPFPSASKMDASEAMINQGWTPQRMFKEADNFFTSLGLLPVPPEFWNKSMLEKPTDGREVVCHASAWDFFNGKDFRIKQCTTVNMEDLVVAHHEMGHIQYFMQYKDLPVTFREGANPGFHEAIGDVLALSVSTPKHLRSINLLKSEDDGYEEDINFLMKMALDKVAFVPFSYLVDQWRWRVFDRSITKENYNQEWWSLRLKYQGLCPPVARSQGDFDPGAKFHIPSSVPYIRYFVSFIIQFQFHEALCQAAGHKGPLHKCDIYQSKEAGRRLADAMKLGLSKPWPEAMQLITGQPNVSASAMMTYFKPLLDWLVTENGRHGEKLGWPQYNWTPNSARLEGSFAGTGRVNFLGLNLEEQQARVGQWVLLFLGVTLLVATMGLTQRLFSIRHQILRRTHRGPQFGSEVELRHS
How it was run: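 ACE (1 nM final) in 50 mM HEPES, 300 mM NaCl, 0.01% Brij-35, pH 7.5, with compound in 5% DMSO at 12 concentrations, 25 °C. Substrate cleavage run ~30 min, stopped with EDTA; fluorescence read at excitation 320 nm, emission 405 nm.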

ACE-2 [2] = biological target: T2, ACE-2 (Homo sapiens, UniProt Q9BYF1); assay: ACE-2 Competitive Substrate Assay (ACS Assay); format: biochemical
T2 construct: a stop codon inserted after the serine immediately preceding the transmembrane domain; made in house; host or cells: CHO K1 cells (transient transfection, purified from conditioned medium)

Carboxypeptidase A = biological target: T3, Carboxypeptidase A (Bos taurus, UniProt P00730); assay: Carboxypeptidase A activity assay; format: biochemical; conditions: Ki class, compounds tested in 5% DMSO
T3 sequence (P00730 111-419): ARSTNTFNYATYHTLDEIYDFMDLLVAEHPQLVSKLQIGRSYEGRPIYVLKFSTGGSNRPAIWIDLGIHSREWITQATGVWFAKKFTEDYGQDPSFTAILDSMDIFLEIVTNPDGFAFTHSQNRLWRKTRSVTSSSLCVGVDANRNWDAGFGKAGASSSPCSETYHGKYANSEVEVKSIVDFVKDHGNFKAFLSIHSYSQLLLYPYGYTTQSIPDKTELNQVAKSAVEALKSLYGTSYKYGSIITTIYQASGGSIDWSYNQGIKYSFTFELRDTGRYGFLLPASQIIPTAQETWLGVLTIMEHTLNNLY
How it was run: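 Bovine carboxypeptidase A activity followed at 328 nm in 5% DMSO, reaction stopped with EDTA. Activity measured at 12 compound concentrations. Ki derived from apparent Ki as Ki=Kiapp/(1+[S]/Km).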

ACE-2 [3] = biological target: ACE-2 (Rattus norvegicus, UniProt Q5EGZ1); assay: ACE-2 Competitive Substrate Assay, rat ACE-2; format: biochemical; conditions: Ki class, compounds tested in 5% DMSO
[4] = Ki class, compounds tested in 5% DMSO, 12 concentrations, read-out: Human ACE-2 Activity

ACE-2 (Rattus norvegicus, UniProt Q5EGZ1), sequence (Q5EGZ1 18-805): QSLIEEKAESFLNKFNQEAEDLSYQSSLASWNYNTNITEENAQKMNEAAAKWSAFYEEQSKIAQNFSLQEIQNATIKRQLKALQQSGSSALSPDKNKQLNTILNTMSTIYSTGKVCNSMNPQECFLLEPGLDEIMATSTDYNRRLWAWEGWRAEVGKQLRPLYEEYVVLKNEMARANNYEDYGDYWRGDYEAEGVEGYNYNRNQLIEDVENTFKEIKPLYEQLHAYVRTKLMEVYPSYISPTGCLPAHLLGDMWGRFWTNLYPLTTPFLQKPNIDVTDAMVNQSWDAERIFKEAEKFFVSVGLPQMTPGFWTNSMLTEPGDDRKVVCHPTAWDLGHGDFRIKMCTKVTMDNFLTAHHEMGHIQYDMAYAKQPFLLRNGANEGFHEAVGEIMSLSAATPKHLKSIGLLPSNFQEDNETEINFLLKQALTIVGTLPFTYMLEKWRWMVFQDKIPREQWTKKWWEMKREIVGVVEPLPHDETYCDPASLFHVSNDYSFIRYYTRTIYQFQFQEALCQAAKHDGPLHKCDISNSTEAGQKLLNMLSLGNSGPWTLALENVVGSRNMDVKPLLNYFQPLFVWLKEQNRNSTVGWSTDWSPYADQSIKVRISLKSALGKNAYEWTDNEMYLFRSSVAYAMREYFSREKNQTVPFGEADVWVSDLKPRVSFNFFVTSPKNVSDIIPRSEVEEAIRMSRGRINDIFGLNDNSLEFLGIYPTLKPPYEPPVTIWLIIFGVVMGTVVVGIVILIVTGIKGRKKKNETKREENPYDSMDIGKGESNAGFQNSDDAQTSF
T2 sequence (Q9BYF1 18-740 limits assumed): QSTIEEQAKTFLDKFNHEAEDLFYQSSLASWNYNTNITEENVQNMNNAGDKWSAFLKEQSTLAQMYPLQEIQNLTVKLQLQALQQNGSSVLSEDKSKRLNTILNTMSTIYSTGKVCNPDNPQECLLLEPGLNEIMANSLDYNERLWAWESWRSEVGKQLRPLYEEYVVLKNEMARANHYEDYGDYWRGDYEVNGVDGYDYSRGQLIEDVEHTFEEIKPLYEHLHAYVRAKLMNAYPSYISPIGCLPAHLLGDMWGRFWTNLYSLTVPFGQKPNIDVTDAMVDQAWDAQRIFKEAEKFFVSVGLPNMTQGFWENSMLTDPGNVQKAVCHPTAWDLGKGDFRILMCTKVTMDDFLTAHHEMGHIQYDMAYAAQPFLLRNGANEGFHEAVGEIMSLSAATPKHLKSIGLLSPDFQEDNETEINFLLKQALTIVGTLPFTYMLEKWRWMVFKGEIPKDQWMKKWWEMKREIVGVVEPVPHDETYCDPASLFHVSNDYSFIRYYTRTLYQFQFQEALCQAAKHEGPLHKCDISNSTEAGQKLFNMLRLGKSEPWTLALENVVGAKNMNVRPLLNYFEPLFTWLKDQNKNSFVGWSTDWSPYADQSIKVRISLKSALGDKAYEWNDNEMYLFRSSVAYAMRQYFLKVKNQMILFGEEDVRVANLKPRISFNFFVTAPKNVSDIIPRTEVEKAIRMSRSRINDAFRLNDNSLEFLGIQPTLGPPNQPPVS

Compound	cumulative food consumption ([1]; one hour)	cumulative food consumption ([1]; six hours)	Ki (ACE (Sigma, A2580); 12 compound concentrations)	Ki (ACE-2 [2]; Ki class, compounds tested in 5% DMSO, 12 compound concentrations, Ki=Kiapp/(1+[S]/Km), read-out: Human ACE-2 Activity)	Ki (ACE-2 [2]; Table 3, very good ACE-2 inhibiting compounds, species not given, read-out: ACE-2 Activity, Ki)	Ki (Carboxypeptidase A; 12 compound concentrations)	Ki (ACE-2 [3]; 12 compound concentrations)	Ki (ACE (Sigma, A2580); 12 concentrations)	Ki (ACE-2 [2]; [4])	Ki (Carboxypeptidase A; 12 concentrations)	Ki (ACE-2 [3]; 12 concentrations)
CC(N)Cc1ccccc1 (centres unmarked) [amphetamine, reference compound]	about 0.18±0.05 g	about 3.10±0.03 g	–	–	–	–	–	–	–	–	–
Cc1ccc(Cn2cncc2C[C@H](NC(CC(C)C)C(=O)O)C(=O)O)cc1 (single isomer, unassigned) [HG, 2-[1-Carboxy-2-[3-(4-methyl-benzyl)-3H-imidazol-4-yl]-ethylamino)4-methyl-pentanoic acid]	–	–	10 to 50 µM	< 0.1 µM	< 0.05 µM	10 to 50 µM	< 0.1 µM	–	–	–	–
CC(C)(C)C[C@H](N[C@@H](C(=O)O)c1ccccc1)C(=O)O [CJ, 2-[(Carboxy-phenyl-methyl)-amino]-4,4-dimethyl-pentanoic acid]	–	–	–	–	–	–	–	> 50 µM	> 0.5 µM	> 50 µM	> 0.5 µM
CC(C)CC(N[C@H](Cc1c[nH]cn1)C(=O)O)C(=O)O (some centres unmarked) [BB, 2-[1-Carboxy-2-(1H-imidazol-4-yl)-ethylamino]4-methyl-pentanoic acid]	–	–	–	–	–	–	–	< 10 µM	> 0.5 µM	> 50 µM	> 0.5 µM
CC(C)C[C@H](N[C@@H](Cc1ccccc1)C(=O)O)C(=O)O [BW, 2-(1-Carboxy-2-phenyl-ethylamino)-4-methyl-pentanoic acid]	–	–	–	–	–	–	–	> 50 µM	> 0.5 µM	10 to 50 µM	0.1 to 0.5 µM
CC(C)C[C@@H](N[C@@H](C(=O)O)c1ccccc1)C(=O)O [BT, 2-[(Carboxy-phenyl-methyl)-amino]-4-methyl-pentanoic acid]	–	–	–	–	–	–	–	> 50 µM	> 0.5 µM	> 50 µM	> 0.5 µM
CC(C)CC(N[C@@H](Cc1cn(Cc2ccc(C(F)(F)F)cc2)cn1)C(=O)O)C(=O)O (some centres unmarked) [EL, 2-{1-Carboxy-2-[1-(4-trifluoromethyl-benzyl)-1H-imidazol-4-yl}-ethylamino]4-methyl-pentanoic acid]	–	–	–	–	–	–	–	> 50 µM	> 0.5 µM	10 to 50 µM	0.1 to 0.5 µM
CC(C)CC(N[C@H](Cc1ccccn1)C(=O)O)C(=O)O (stereo in doubt) [BZ, 2-(1-Carboxy-2-pyridin-2-yl-ethylamino)-4-methyl-pentanoic acid]	–	–	–	–	–	–	–	> 50 µM	> 0.5 µM	> 50 µM	> 0.5 µM
COc1ccc(CCNC(=O)[C@H](Cc2cnc[nH]2)NC(CC(C)C)C(=O)O)cc1 (single isomer, unassigned) [FK, 2-{2-(3H-Imidazol-4-yl)-1-[2-(4-methoxy-phenyl)-ethylcarbamoyl]-ethylamino}-4-methyl-pentanoic acid]	–	–	–	–	–	–	–	> 50 µM	> 0.5 µM	> 50 µM	> 0.5 µM
CC(C)CC(N[C@@H](Cc1cncn1COCc1ccccc1)C(=O)O)C(=O)O (single isomer, unassigned) [FG, 2-[2-(3-Benzyloxymethyl-3H-imidazol-4-yl)-1-carboxy-ethylamino]-4-methyl-pentanoic acid]	–	–	–	–	–	–	–	> 50 µM	> 0.5 µM	> 50 µM	> 0.5 µM
CC(C)CC(N[C@@H](Cc1cncn1Cc1cccc([N+](=O)[O-])c1)C(=O)O)C(=O)O (single isomer, unassigned) [GB, 2-[1-Carboxy-2-[3-(3-nitro-benzyl)-3H-imidazol-4-yl]-ethylamino]-4-methyl-pentanoic acid]	–	–	–	–	–	–	–	> 50 µM	> 0.5 µM	> 50 µM	0.1 to 0.5 µM
CC(C)CC(N[C@@H](Cc1cncn1Cc1cccc2ccccc12)C(=O)O)C(=O)O (single isomer, unassigned) [GK, 2-[1-Carboxy-2-(3-naphthalen-1-ylmethyl-3Himidazol-4-yl)-ethylamino]4-methyl-pentanoic acid]	–	–	–	–	–	–	–	> 50 µM	< 0.1 µM	10 to 50 µM	< 0.1 µM
CC(C)C[C@@H](N[C@H](C(=O)O)c1ccccc1)C(=O)O [BS, 2-[(Carboxy-phenyl-methyl)-amino]-4-methyl-pentanoic acid]	–	–	–	–	–	–	–	> 50 µM	> 0.5 µM	> 50 µM	> 0.5 µM
CC(C)CC(N[C@@H](CN(C)c1ccccc1)C(=O)O)C(=O)O (some centres unmarked) [FS, 2-[1-Carboxy-2-(methyl-phenyl-amino)-ethylamino]-4-methyl-pentanoic acid]	–	–	–	–	–	–	–	> 50 µM	> 0.5 µM	10 to 50 µM	< 0.1 µM
CC(C)CC(N[C@H](CN(C)c1ccccc1)C(=O)O)C(=O)O (some centres unmarked) [FT, 2-[1-Carboxy-2-(methyl-phenyl-amino)-ethylamino]-4-methyl-pentanoic acid]	–	–	–	–	–	–	–	> 50 µM	> 0.5 µM	> 50 µM	> 0.5 µM
COC(=O)[C@H](CC(C)C)NCC(=O)[C@H](Cc1ccccc1)NC(=O)OCc1ccccc1 [DI, 2-(3-Benzyloxycarbonylamino-2-oxo-4-phenyl-butylamino)-4-methyl-pentanoic acid methylester]	–	–	–	–	–	–	–	> 50 µM	> 0.5 µM	10 to 50 µM	> 0.5 µM
CC(C)CC(N[C@@H](Cc1c[nH]cn1)C(N)=O)C(=O)O (single isomer, unassigned) [EV, 2-[1-Carbamoyl-2-(1H-imidazol-4-yl)-ethylamino]4-methyl-pentanoic acid]	–	–	–	–	–	–	–	> 50 µM	> 0.5 µM	> 50 µM	> 0.5 µM
O=C(O)C(CCc1ccccc1)N[C@@H](Cc1c[nH]cn1)C(=O)O (some centres unmarked) [DP, 2-[1-Carboxy-2-(1H-imidazol-4-yl)-ethylamino]4-phenyl-butync acid]	–	–	–	–	–	–	–	10 to 50 µM	> 0.5 µM	> 50 µM	0.1 to 0.5 µM
COC(=O)[C@H](Cc1c[nH]cn1)NC(CC(C)C)C(=O)O (single isomer, unassigned) [CT, 2-[2-(1H-Imidazol-4-yl)-1-methoxycarbonyl-ethylamino]-4-methyl-pentanoic acid]	–	–	–	–	–	–	–	> 50 µM	> 0.5 µM	> 50 µM	> 0.5 µM
CC(C)CC(N[C@H](CN(C)Cc1ccccc1)C(=O)O)C(=O)O (stereo in doubt) [FU, 2-[2-(Benzyl-methyl-amino)-1-carboxy-ethylamino]-4-methyl-pentanoic acid]	–	–	–	–	–	–	–	> 50 µM	> 0.5 µM	> 50 µM	> 0.5 µM
CC(C)CC(N[C@H](Cc1c[nH]cn1)C(=O)O)C(=O)O (single isomer, unassigned) [BI, 2-[1-Carboxy-2-(1H-imidazol-4-yl)-ethylamino]4-methyl-pentanoic acid]	–	–	–	–	–	–	–	> 50 µM	> 0.5 µM	> 50 µM	> 0.5 µM
